How the values were obtained:
[1] = Absorption spectroscopy to assess photosensitizer aggregation in water; format: physicochemical; conditions: for Aggregation in water by absorption spectrum: construct at 87.8 µM, compared with EtNBS in acidified methanol
Source text: Spectra were acquired using a home-built spectrometer that made use of a white light source for absorption measurements and a 655 nm LED for EtNBS excitation. Transmitted or absorbed light was collected and fiber-delivered to a QE65000 spectrometer (Ocean Optics) for spectral acquisition.

OVCAR5 cells = assay: Uptake in monolayer cell cultures, confocal fluorescence microscopy; format: cell-based
Protocol: (§1) All imaging experiments were carried out on an Olympus FV1000 confocal microscope with a stage-top incubator (Prior) to maintain humidity, 37 °C temperature, and 5% CO2 during imaging sessions. For each sample, imaging was restricted to 15 minutes from the time cells were removed from the incubator to avoid any artifacts related to cell death. Image acquisition parameters were chosen which captured signal from both samples/cell lines without any saturation of signal and were kept uniform between samples to allow for direct one-to-one comparison of signal. These parameters were also used to image cells treated with known concentrations of EtNBS, to allow for relative comparison of uptake against known references. For every imaging experiment and conditions, a minimum of three areas of interests were collected and analyzed.
(§2) Stably transfected OVCAR5 cells overexpressing the alpha5 integrin as well as wild-type OVCAR5 cells were plated as described above in glass-bottom 35 mm culture dishes (P35G-0.170-14-C, MatTek) at a density of 200,000 cells per dish 24 hours prior to the start of experiments. Cells were administered the photosensitizer at a concentration of 10 µM in warmed complete cell culture medium and incubated for 3 hours in a 37 °C incubator under 5% CO2. […]

monolayer OVCAR5 cells [2] = conditions: 5 µM concentration, no light; 'has been observed', no reference given; cited from earlier work
Protocol: To assess the ability of the construct to carry out PDT, monolayer OVCAR5 cells were incubated with the EtNBS construct and illuminated with 660 nm light (Fig. 7). […] This is true even though the construct is more efficient in the generation of reactive radical species. This difference in light dose between the free molecule and its targeted construct, however, is not entirely surprising; similar higher light doses have been found necessary in immunoconjugates based on the benzoporphyrin der ...

monolayer OVCAR5 cells [3] = assay: Photodynamic therapy and dark toxicity in monolayer cultures, MTT viability assay
Protocol: (§4) The MTT assay was used to evaluate cellular viability of PDT-treated monolayer cultures. […] The MTT reagent (Thiazolyl Blue Tetrazolium Bromide, Sigma) was administered to cells in warmed complete cell culture media at a concentration of 1 mg/mL. Growth medium was gently aspirated from wells so as not to remove weakly adhered cells and was replaced with MTT media solution (160 µL). Cells were then returned cells to the 37 °C incubator and kept under 5% CO2 for 60 minutes. After incubating cells, the MTT treatment solution was carefully and completely aspirated from wells, with DMSO then added (180 µL) to extract cellular Formazan. After incubating samples for 15 minutes at room temperature while periodically rocking plates to completely and uniformly dissolve Formazan crystals, Formazan-containing DMSO was aliquoted (50 µL volumes from each well in triplicate) into a 96-well plate alongside wells containing an equal volume of DMSO to be used for background subtraction. The absorbance of Formazan at 540 nm was then measured using a SpectraMax M5 (Molecular Devices) plate reader.
(§5) After averaging measured absorbance values, background-subtraction was carried out and the standard deviation of the experimental values was calculated. For each individual sample group or treatment condition, the background-subtracted average absorbance value was normalized to that of the untreated (“NT”) control group to obtain the normalized cellular viabilities. […] All measurements were performed in triplicate to ensure high quality data collection.
(§6) All steps involving the manipulation of photosensitizers were carried out under subdued lighting to the extent that it was possible to avoid artifacts from unintentional photodynamic effects. Wells within each dish were spaced far apart from each other to ensure minimal light administration cross-talk. All manipulations of media or other culture liquids were done manually, specifically avoiding the use of vacuum aspiration techniques to avoid the unintended removal of weakly adhered cells before, during or after therapy.
(§7) Sequential blocking of integrins with cRGD peptide was achieved by administering a 10-fold excess of cRGD peptide (50 µM) in warmed DPBS to cells and incubating for a duration of 3 hours at 37 °C in a 5% CO2 incubator. Blocking solution was removed and replaced with photosensitizer-containing treatment media without performing a washing step and cells were immediately returned to the incubator for the appropriate time.
(§8) Concentrated stock solutions of photosensitizers were diluted in and administered to cells in warmed complete cell culture media. […] Integrin-dependent PDT efficacy was evaluated using 10 µM photosensitizer doses. The comparison of PEG-dependent enhancement in PDT was evaluated using 5 µM photosensitizer doses. […]

[4] = Reactive oxygen species generation, singlet oxygen sensor green (SOSG) fluorogenic assay
Protocol: (§3) HPF (H36004) and SOSG (S36002) were purchased from Life Technologies and were used as directed by the manufacturer’s protocol. Working solutions were prepared at 10 µM in DPBS or 5 µM TRIS buffer (pH 7.5) for HPF and SOSG, respectively, using 10 µM concentrations of the appropriate photosensitizer. All sample irradiation was carried out using 660 nm-centered LED-generated light (M660L3, Thorlabs) at an irradiance of 100 mW/cm^2. Irradiation of 80 µL sample volumes was carried out in clear plastic 96-well plates, with the emission of the ROS probes measured with a plate reader (SpectraMax m5, Molecular Devices). Experiments were performed in triplicate and experimental values (N = 3) were averaged and background-subtraction was performed.

[5] = Reactive oxygen species generation, hydroxyphenyl fluorescein (HPF) fluorogenic assay; conditions: 10 µM photosensitizer, 660 nm
Protocol: as §3

[6] = tested on: OVCAR5 cell line engineered to ectopically overexpress the α5 integrin; assay: Integrin-dependent uptake in monolayer culture, confocal fluorescence microscopy; format: cell-based
Protocol: as §1, §2

monolayer OVCAR5 cells [7] = tested on: monolayer OVCAR5 cells
Protocol: as §4, §5, §6, §7, §8

Row | Compound | Aggregation in water by absorption spectrum (Supplementary Fig. 3) ([1]; 5 µM concentration) | Aggregation in water by absorption spectrum [1] | Photosensitizer uptake of free EtNBS relative to the construct (OVCAR5 cells; relative comparison) | Drop in viability due solely to dark toxicity (monolayer OVCAR5 cells [2]) [%] | Toxicity of cRGD administered solely to cells (monolayer OVCAR5 cells [3]; cRGD only, not exposed to light, MTT) | ROS generation measured by SOSG versus free EtNBS ([4]; 10 µM photosensitizer, 660 nm, 100 mW/cm^2, all light doses tested (5–40 J/cm^2), triplicate) | Yield of singlet oxygen (SOSG) relative to free EtNBS ([4]; equimolar 10 µM photosensitizer, 5 µM SOSG in TRIS buffer pH 7.5, 660 nm LED, 100 mW/cm^2, highest light dose (40 J/cm^2), mean of triplicate) [%] | Enhancement of HPF fluorescence versus free EtNBS ([5]; 10 µM HPF in DPBS, 100 mW/cm^2, dose of 50 J/cm^2, triplicate) | Photodynamic activity measured by HPF versus free EtNBS ([5]; 100 mW/cm^2, all light doses (5–100 J/cm^2), triplicate) | Uptake in alpha5 integrin overexpressing OVCAR5 versus OVCAR5 ([6]; 10 µM, 3 hours incubation, 37 °C, fluorescence excited at 635 nm, 670 nm emission) | Uptake of PEGylated versus unPEGylated construct in overexpressing cells ([6]; alpha5 integrin overexpressing OVCAR5 cells) | Photosensitizer concentration within the cells relative to administered free EtNBS (OVCAR5 cells; EtNBS references at 250 nM and 500 nM) | Toxicity without light, small scale experiments (monolayer OVCAR5 cells [7]) | Reduction in viability after PDT (monolayer OVCAR5 cells [3]; 5 µM photosensitizer, 3 hour incubation, 660 nm at 100 mW/cm^2, 100 J/cm^2 light dose, MTT 24 hours post-treatment, triplicate) [%] | PDT effect after pre-incubation with free cRGD (monolayer OVCAR5 cells [3]; pre-treated with cRGD 50 µM (tenfold molar excess) 3 hours, then construct 5 µM, 100 J/cm^2 at 660 nm, MTT)
1 | CCNc1cc2sc3cc(=[N+](CC)CC)ccc-3nc2c2ccccc12.[Cl-] [EtNBS] | displays a blue shift | formation of aggregates distorts the spectrum | up to two orders of magnitude greater uptake | 70 |  |  |  |  |  |  |  |  |  |  | 
2 | N=C(N)NCCC[C@@H]1NC(=O)[C@H](CCCCN)NC(=O)[C@@H](Cc2ccccc2)NC(=O)[C@H](CC(=O)O)NC(=O)CNC1=O [cRGD, cRGDfK, reference compound] |  |  |  |  | did not result in any measured toxicity |  |  |  |  |  |  |  |  |  | 
3 | DOTA-Lys(ETNBS)-Lys(PEG5K)-β-Ala-Cys(DBCO-PEG4-cRGD) (head to tail) [EtNBS construct] |  | does not show aggregation |  |  |  | greater than that of free EtNBS | ~100 | two-fold enhancement | considerably greater photodynamic activity | significantly greater | take up more | many times lower | equally harmless | 60 | protected the cells against PDT

From publication PMC5645319, “An Integrin-Targeted, Highly Diffusive Construct for Photodynamic Therapy” (Scientific Reports, 2017)
